The text below walks through data of patent EP4311580A1, “AMINOACID-FLUORIDE SALTS FOR MOUTH HYGIENE” (Schäfer, Rolf, priority 2022, dated 2024).

Read-outs that look alike come from different tables or passages of the source.

Data set [1] deals with MG-63 osteoblast cells. Kind of data set: Time to confluence of MG-63 osteoblast cells in tissue culture with fluoride compounds in the medium. Conditions: for effect on osteoblast cells in culture (lysis / influence on growth / toxicity) / inhibition of cell growth: MG-63 osteoblasts; for effect on osteoblast cells in culture (lysis / influence on growth / toxicity): 1400ppm fluoride, result in words; for inhibition of cell growth: 1400ppm fluoride concentration, relative to control; for Time to confluence / Time to confluence (days): compounds at 1400ppm fluoride in cell growth media, 5x10cm tissue culture flasks, control without fluoride 4-5 days.

For data set [2], the system named is MG-63 osteoblast cells.

With `CCCCCCCCCCCCOS(=O)(=O)[O-].[Na+]` [Sodium laurylsulfate (SDS), Sodium laurylsulfate, reference compound], the “effect on osteoblast cells in culture (lysis / influence on growth / toxicity)” value with MG-63 osteoblast cells [1] is reported as “lysing (dissolving the membrane) osteoblast cells”. Also, the “Time to confluence (days)” value in the data set with MG-63 osteoblast cells [2] is reported as “cell lysis”.

For Decalysine-ε-ammonium-decafluoride, in the data set on MG-63 osteoblast cells [1], the “inhibition of cell growth” value is given as 40-50% and the “Time to confluence” value lay in the range of 8 to 9 days.

For `NC(Cc1c[nH]c2ccccc12)C(=O)O` (stereo not shown) [Tryptophan-N-ammonium-mono-hydrofluoride], the “Time to confluence” value with MG-63 osteoblast cells [1] was 5 to 6 days.

Turning to `NCCCCC(N)C(=O)O` (stereo not shown) [Lysine-ε-ammonium-fluoride], in the data set with MG-63 osteoblast cells [1], the “inhibition of cell growth” value is on record as “no inhibition at all” and the “effect on osteoblast cells in culture (lysis / influence on growth / toxicity)” value is given as “no influence of growth on osteoblasts”. The “Time to confluence” value in the data set with MG-63 osteoblast cells [2] fell in the range of 4 to 5 days.

As for Potassium fluoride [reference compound], the “Time to confluence” value with MG-63 osteoblast cells [2] lay in the range of 6 to 7 days. Turning to `CCOC(=O)[C@@H](N)Cc1ccc(O)cc1.F.N` [Tyrosine-O-ethylester-ammoniumfluoride], in the data set with MG-63 osteoblast cells [1], the “Time to confluence” value lay within 5 to 6 days. Still for that read-out and setting: as for `F.F.N.N.N[C@@H](Cc1c[nH]cn1)C(=O)O` [Histidine-ammonium-difluoride], the figure is 7 to 8 days; as for `CCOC(=O)[C@H](C)N.F.N` [Alanine-O-ethylester-ammoniumfluoride], 5 to 6 days; as for `CCOC(=O)[C@@H](N)Cc1c[nH]c2ccccc12` [Tryptophan-O-ethylester-N,N'-ammoniumdifluoride], 8 to 9 days. As to `CCCCCCCCCCCCCCCCCCN(CCO)CCCN(CCO)CCO` [Olaflur, reference compound], in the data set with MG-63 osteoblast cells [1], the “effect on osteoblast cells in culture (lysis / influence on growth / toxicity)” value is “lysing (dissolving the membrane) osteoblast cells” and the “Time to confluence (days)” value is listed as “cell lysis”. Regarding `CCOC(=O)[C@@H](N)CCCCN` [Lysine-O-ethylester-ε-ammoniumdifluoride], the “Time to confluence” value with MG-63 osteoblast cells [2] fell in the range of 5 to 6 days. With `CCCCCCCCC=CCCCCCCCCN.F` [Dectaflur, 9-octadecenylamine-hydrofluoride, reference compound], in the data set on MG-63 osteoblast cells [1], the “effect on osteoblast cells in culture (lysis / influence on growth / toxicity)” value is reported as “lysing (dissolving the membrane) osteoblast cells” and the “Time to confluence (days)” value is listed as “cell lysis”.

As for sodium fluoride [reference compound], the “inhibition of cell growth” value in the data set on MG-63 osteoblast cells [1] stood at 20%.
